PubChem BioAssay (NCI)
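Dose response: 5 concentrations. Exposure: 48 h. Format: 96-well plates. Endpoint: linear interpolation; highest concentration if not reached. At the TGI there is no net growth.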

Key:
Assay in all cases: NCI tumour cell line growth inhibition, 48 h
786-0 renal = system: 786-0 renal
A498 renal = system: A498 renal
A549 NSCLC = system: A549 NSCLC
ACHN renal = system: ACHN renal
CCRF-CEM leukemia = system: CCRF-CEM leukemia
COLO 205 colon = system: COLO 205 colon
DLD-1 colon = system: DLD-1 colon
DMS 114 small cell lung = system: DMS 114 small cell lung
DMS 273 small cell lung = system: DMS 273 small cell lung
EKVX NSCLC = system: EKVX NSCLC
HCC-2998 colon = system: HCC-2998 colon
HCT-116 colon = system: HCT-116 colon
HCT-15 colon = system: HCT-15 colon
HL-60(TB) leukemia = system: HL-60(TB) leukemia
HOP-18 NSCLC = system: HOP-18 NSCLC
HOP-62 NSCLC = system: HOP-62 NSCLC
HOP-92 NSCLC = system: HOP-92 NSCLC
HT29 colon = system: HT29 colon
IGROV1 ovarian = system: IGROV1 ovarian
K-562 leukemia = system: K-562 leukemia
KM20L2 colon = system: KM20L2 colon
LXFL 529 NSCLC = system: LXFL 529 NSCLC
M14 melanoma = system: M14 melanoma
M19-MEL melanoma = system: M19-MEL melanoma
MALME-3M melanoma = system: MALME-3M melanoma
MOLT-4 leukemia = system: MOLT-4 leukemia
NCI-H226 lung = system: NCI-H226 lung
NCI-H23 lung = system: NCI-H23 lung
NCI-H522 lung = system: NCI-H522 lung
OVCAR-4 ovarian = system: OVCAR-4 ovarian
OVCAR-8 ovarian = system: OVCAR-8 ovarian
RPMI-8226 leukemia = system: RPMI-8226 leukemia
RXF 393 renal = system: RXF 393 renal
SF-268 CNS = system: SF-268 CNS
SF-295 CNS = system: SF-295 CNS
SF-539 CNS = system: SF-539 CNS
SK-MEL-28 melanoma = system: SK-MEL-28 melanoma
SK-MEL-5 melanoma = system: SK-MEL-5 melanoma
SK-OV-3 ovarian = system: SK-OV-3 ovarian
SN12C renal = system: SN12C renal
SNB-19 CNS = system: SNB-19 CNS
SNB-75 CNS = system: SNB-75 CNS
SNB-78 CNS = system: SNB-78 CNS
SR leukemia = system: SR leukemia
SW-620 colon = system: SW-620 colon
U251 CNS = system: U251 CNS
UACC-257 melanoma = system: UACC-257 melanoma
UACC-62 melanoma = system: UACC-62 melanoma
UO-31 renal = system: UO-31 renal
XF 498 CNS = system: XF 498 CNS
CAKI-1 renal = system: CAKI-1 renal
KM12 colon = system: KM12 colon
LOX IMVI melanoma = system: LOX IMVI melanoma
NCI-H460 lung = system: NCI-H460 lung
OVCAR-3 ovarian = system: OVCAR-3 ovarian
OVCAR-5 ovarian = system: OVCAR-5 ovarian
SK-MEL-2 melanoma = system: SK-MEL-2 melanoma
TK-10 renal = system: TK-10 renal
RXF-631 renal = system: RXF-631 renal

O=C1c2ccccc2N2OC3(N4CCCC4)CCCC3C12c1ccccc1 (stereo not drawn)
TGI (786-0 renal): > 100 µM
TGI (A498 renal): > 100 µM
TGI (A549 NSCLC): > 100 µM
TGI (ACHN renal): > 100 µM
TGI (CCRF-CEM leukemia): > 100 µM
TGI (COLO 205 colon): > 100 µM
TGI (DLD-1 colon): > 100 µM
TGI (DMS 114 small cell lung): > 100 µM
TGI (DMS 273 small cell lung): > 100 µM
TGI (EKVX NSCLC): > 100 µM
TGI (HCC-2998 colon): > 100 µM
TGI (HCT-116 colon): > 100 µM
TGI (HCT-15 colon): > 100 µM
TGI (HL-60(TB) leukemia): > 100 µM
TGI (HOP-18 NSCLC): > 100 µM
TGI (HOP-62 NSCLC): > 100 µM
TGI (HOP-92 NSCLC): > 100 µM
TGI (HT29 colon): > 100 µM
TGI (IGROV1 ovarian): > 100 µM
TGI (K-562 leukemia): > 100 µM
TGI (KM20L2 colon): > 100 µM
TGI (LXFL 529 NSCLC): > 100 µM
TGI (M14 melanoma): > 100 µM
TGI (M19-MEL melanoma): > 100 µM
TGI (MALME-3M melanoma): > 100 µM
TGI (MOLT-4 leukemia): > 100 µM
TGI (NCI-H226 lung): > 100 µM
TGI (NCI-H23 lung): > 100 µM
TGI (NCI-H522 lung): > 100 µM
TGI (OVCAR-4 ovarian): > 100 µM
TGI (OVCAR-8 ovarian): > 100 µM
TGI (RPMI-8226 leukemia): > 100 µM
TGI (RXF 393 renal): > 100 µM
TGI (SF-268 CNS): > 100 µM
TGI (SF-295 CNS): > 100 µM
TGI (SF-539 CNS): > 100 µM
TGI (SK-MEL-28 melanoma): > 100 µM
TGI (SK-MEL-5 melanoma): > 100 µM
TGI (SK-OV-3 ovarian): > 100 µM
TGI (SN12C renal): > 100 µM
TGI (SNB-19 CNS): > 100 µM
TGI (SNB-75 CNS): > 100 µM
TGI (SNB-78 CNS): > 100 µM
TGI (SR leukemia): > 100 µM
TGI (SW-620 colon): > 100 µM
TGI (U251 CNS): > 100 µM
TGI (UACC-257 melanoma): > 100 µM
TGI (UACC-62 melanoma): > 100 µM
TGI (UO-31 renal): > 100 µM
TGI (XF 498 CNS): > 100 µM

COC(=O)c1nc(NN)[nH]c(=O)c1CCCCCc1c(C(=O)OC)[nH]c(NN)cc1=O
TGI (786-0 renal): > 100 µM
TGI (A498 renal): > 100 µM
TGI (A549 NSCLC): > 100 µM
TGI (ACHN renal): > 100 µM
TGI (CAKI-1 renal): > 100 µM
TGI (CCRF-CEM leukemia): > 100 µM
TGI (COLO 205 colon): > 100 µM
TGI (DLD-1 colon): > 100 µM
TGI (DMS 114 small cell lung): > 100 µM
TGI (DMS 273 small cell lung): > 100 µM
TGI (EKVX NSCLC): > 100 µM
TGI (HCC-2998 colon): > 100 µM
TGI (HCT-116 colon): > 100 µM
TGI (HCT-15 colon): > 100 µM
TGI (HL-60(TB) leukemia): > 100 µM
TGI (HOP-18 NSCLC): > 100 µM
TGI (HOP-62 NSCLC): > 100 µM
TGI (HOP-92 NSCLC): > 100 µM
TGI (HT29 colon): > 100 µM
TGI (IGROV1 ovarian): > 100 µM
TGI (K-562 leukemia): > 100 µM
TGI (KM12 colon): > 100 µM
TGI (KM20L2 colon): > 100 µM
TGI (LOX IMVI melanoma): > 100 µM
TGI (LXFL 529 NSCLC): > 100 µM
TGI (M14 melanoma): > 100 µM
TGI (M19-MEL melanoma): > 100 µM
TGI (MALME-3M melanoma): > 100 µM
TGI (MOLT-4 leukemia): > 100 µM
TGI (NCI-H226 lung): > 100 µM
TGI (NCI-H23 lung): > 100 µM
TGI (NCI-H460 lung): > 100 µM
TGI (NCI-H522 lung): > 100 µM
TGI (OVCAR-3 ovarian): > 100 µM
TGI (OVCAR-4 ovarian): > 100 µM
TGI (OVCAR-5 ovarian): > 100 µM
TGI (OVCAR-8 ovarian): > 100 µM
TGI (RPMI-8226 leukemia): > 100 µM
TGI (RXF 393 renal): > 100 µM
TGI (SF-268 CNS): > 100 µM
TGI (SF-295 CNS): > 100 µM
TGI (SF-539 CNS): > 100 µM
TGI (SK-MEL-2 melanoma): > 100 µM
TGI (SK-MEL-28 melanoma): > 100 µM
TGI (SK-MEL-5 melanoma): > 100 µM
TGI (SK-OV-3 ovarian): > 100 µM
TGI (SN12C renal): > 100 µM
TGI (SNB-19 CNS): > 100 µM
TGI (SNB-75 CNS): > 100 µM
TGI (SNB-78 CNS): > 100 µM
TGI (SR leukemia): > 58.9 µM
TGI (SW-620 colon): > 100 µM
TGI (TK-10 renal): > 100 µM
TGI (U251 CNS): > 100 µM
TGI (UACC-257 melanoma): > 100 µM
TGI (UACC-62 melanoma): > 100 µM
TGI (UO-31 renal): > 100 µM
TGI (XF 498 CNS): > 100 µM

O=C(C(=O)c1ccc(Cc2ccc(C(=O)C(=O)c3ccccc3)cc2)cc1)c1ccccc1
TGI (786-0 renal): > 100 µM
TGI (A498 renal): > 100 µM
TGI (A549 NSCLC): > 100 µM
TGI (ACHN renal): > 100 µM
TGI (CAKI-1 renal): > 100 µM
TGI (CCRF-CEM leukemia): > 100 µM
TGI (COLO 205 colon): > 100 µM
TGI (DLD-1 colon): > 100 µM
TGI (DMS 114 small cell lung): > 100 µM
TGI (DMS 273 small cell lung): > 100 µM
TGI (EKVX NSCLC): > 100 µM
TGI (HCC-2998 colon): > 100 µM
TGI (HCT-116 colon): > 100 µM
TGI (HCT-15 colon): > 100 µM
TGI (HL-60(TB) leukemia): > 100 µM
TGI (HOP-18 NSCLC): > 100 µM
TGI (HOP-62 NSCLC): > 100 µM
TGI (HOP-92 NSCLC): > 100 µM
TGI (HT29 colon): > 100 µM
TGI (IGROV1 ovarian): > 100 µM
TGI (K-562 leukemia): > 100 µM
TGI (KM12 colon): > 100 µM
TGI (KM20L2 colon): > 100 µM
TGI (LOX IMVI melanoma): > 100 µM
TGI (LXFL 529 NSCLC): > 100 µM
TGI (M14 melanoma): > 100 µM
TGI (M19-MEL melanoma): > 100 µM
TGI (MALME-3M melanoma): > 100 µM
TGI (NCI-H226 lung): > 100 µM
TGI (NCI-H23 lung): > 100 µM
TGI (NCI-H460 lung): > 100 µM
TGI (NCI-H522 lung): > 100 µM
TGI (OVCAR-3 ovarian): > 100 µM
TGI (OVCAR-4 ovarian): > 100 µM
TGI (OVCAR-5 ovarian): > 100 µM
TGI (OVCAR-8 ovarian): > 100 µM
TGI (RXF 393 renal): > 100 µM
TGI (RXF-631 renal): > 100 µM
TGI (SF-268 CNS): > 100 µM
TGI (SF-295 CNS): > 100 µM
TGI (SF-539 CNS): > 100 µM
TGI (SK-MEL-2 melanoma): > 100 µM
TGI (SK-MEL-28 melanoma): > 100 µM
TGI (SK-MEL-5 melanoma): > 100 µM
TGI (SK-OV-3 ovarian): > 100 µM
TGI (SN12C renal): > 100 µM
TGI (SNB-19 CNS): > 100 µM
TGI (SNB-75 CNS): > 100 µM
TGI (SNB-78 CNS): > 100 µM
TGI (SW-620 colon): > 100 µM
TGI (TK-10 renal): > 100 µM
TGI (U251 CNS): > 100 µM
TGI (UACC-257 melanoma): > 100 µM
TGI (UACC-62 melanoma): > 100 µM
TGI (UO-31 renal): > 100 µM
